One molecule from patent US8507674B2, “Quorum sensing inhibitor” (The University of Tokyo, priority 2007, dated 2013) can be followed below.

The subject of assay [1] is Burkholderia glumae. Put plainly: Test Example 9: amount of toxoflavin produced in culture solution, with comparative compound. The class given is cell-based. To be noted: 0, 20, 40, 60, 80 or 100 μM, shake culturing 20 hours, FIG. 6. As to the method:
Burkholderia glumae was inoculated into an LB culture medium (produced by BD (Difco LB Broth: containing tryptone (10.0 g), yeast extract (5.0 g), and sodium chloride (10.0 g)), and cultured at 37° C. overnight. The thus-obtained culture solution was subjected to bacterial collection using a centrifuge, and washed with an LB culture medium twice using a fresh LB culture medium each time. To the bacterial cell a fresh LB culture medium was added, and then Compound (1) produced in Production Example 1 was added thereto in such a manner that its final concentration became a predetermined value (i.e., 0, 20, 40, 60, 80 or 100 μM), followed by shake culturing for 20 hours. The amount of toxoflavin produced by the bacterial cell in the culture solution was obtained by the following procedure.
Each culture solution was filtered by a 0.22-μm membrane filter, and 1 mL of the filtrate was isolated. One mL of chloroform was added to the filtrate, followed by extraction. The thus-obtained chloroform layer was concentrated under reduced pressure, and an 80% (V/V) an aqueous methanol solution was added to and dissolved in the residue. The absorbance (at 260 nm) of the solution was measured, and the toxin doses were calculated from the calibration curve, which was obtained using chemically synthesized standard toxin. […]

Assay [2] relates to Burkholderia glumae. Briefly: Test Example 1: production of QS signal molecules C6-HSL and C8-HSL (TLC, CV026 violacein detection). Type of assay: cell-based. How it is done:
Burkholderia glumae was inoculated into an LB culture medium (produced by BD) (Difco LB Broth: containing tryptone (10.0 g), yeast extract (5.0 g), and sodium chloride (10.0 g)), and cultured at 37° C. overnight. The thus-cultured broth was subjected to bacterial collection using a centrifuge, washed with an LB culture medium twice using a fresh LB culture medium each time. […] Each of the broths was filtered by a membrane filter (0.22 μm). 0.5 mL of ethyl acetate was added to 0.5 mL of supernate from which bacteria were removed, and then the quorum sensing (QS) signal molecules were extracted using ethyl acetate. The thus-obtained ethyl acetate layer was concentrated under reduced pressure, and the residue was re-dissolved in 20 μL of methanol, producing a test liquid.
The test liquid (1 μL) was spotted on TLC to separate C6-HSL and C8-HSL, which are QS signal molecules, under the condition of developing solvent: methanol/water=70/30. After the development, a TLC plate was well dried and a culture solution containing QS signal molecule detection bacteria (Chromobacterium violaceum CV026 strain) that had been pre-cultured in an LB culture medium and agar was applied to the TLC plate, followed by the detection of C6-HSL and C8-HSL. Chromobacterium violaceum is known as a bacterium that produces purple pigment (violacein) using the QS; therefore, the CV026 strain can be used to detect QS signal molecules (Microbiology, (1997), 143, 3703-3711, (2004), 54(4), 921-934, (2007), 64(1), 165-179). After applying the detected bacteria to the TLC plate, the TLC plate was subjected to overnight cultivation at 28° C. and then detection using violacein. For quantitative determination, calibration curves showing the violacein production from C6-HSL and C8-HSL that had been chemically synthesized were obtained. From the calibration curves, the production amounts of the QS signal molecules of each compound were obtained.

Where [3] appears, read: 40 μM compound, 12 hours shake culturing.
Setting [4] is: 40 μM compound, 24 hours shake culturing.
Setting [5] is: 60 μM compound, 12 hours shake culturing.
Where [6] appears, read: 60 μM compound, 24 hours shake culturing.

For `CCCc1cc(=O)n2cccc(O)c2n1` [Compound (1), 2-n-propyl-9-hydroxy-4H-pyrid[1,2-a]pyrimidin-4-one], in assay [1], the “toxin doses produced by bacteria (toxoflavin)” value is “remarkably decreased”. The C6-HSL in assay [2] (setting [3]) was 163 ng/mL; in assay [2] (setting [4]), 0 ng/mL; in assay [2] (setting [5]) it was 167 ng/mL; in assay [2] (setting [6]) it was 0 ng/mL. Moreover, the C8-HSL turned out to be 14 µg/mL in assay [2] (setting [3]), 0 µg/mL in assay [2] (setting [4]), 13 µg/mL in assay [2] (setting [5]) and 0 µg/mL in assay [2] (setting [6]).
